Tested on: MV-4-11 cells
Assay: Gene expression microarray analysis (Affymetrix PrimeView) and GSEA
Assay type: cell-based, human
Design: RFU PODN (11730768_x_at) / Fold change /veh PODN (11730768_x_at) / RFU LINC00158 (11744669_a_at) / Fold change /veh LINC00158 (11744669_a_at) / RFU DUSP10 (11751237_a_at) / Fold change /veh DUSP10 (11751237_a_at) / RFU ID3 (11757404_x_at) / Fold change /veh ID3 (11757404_x_at) / RFU PLEKHG5 (11737974_s_at) / Fold change /veh PLEKHG5 (11737974_s_at) / RFU LRRC4B (11730491_at) / Fold change /veh LRRC4B (11730491_at) / RFU GIMAP4 (11747438_a_at) / Fold change /veh GIMAP4 (11747438_a_at) / RFU KRT8 (11758183_x_at) / Fold change /veh KRT8 (11758183_x_at) / RFU CNN1 (11734310_a_at) / Fold change /veh CNN1 (11734310_a_at) / RFU VPS37D (11726825_at) / Fold change /veh VPS37D (11726825_at) / RFU C10orf10 (11716522_x_at) / Fold change /veh C10orf10 (11716522_x_at) / RFU KIR2DL2 /// KIR2DL4 /// KIR2DL5A /// KIR2DL5B /// KIR2DS1 /// KIR2DS2 /// KIR2DS3 /// KIR2DS4 /// KIR3DL3 /// KIR3DL3 /// KIR3DS1 (11738374_at) / Fold change /veh KIR2DL2 /// KIR2DL4 /// KIR2DL5A /// KIR2DL5B /// KIR2DS1 /// KIR2DS2 /// KIR2DS3 /// KIR2DS4 /// KIR3DL3 /// KIR3DL3 /// KIR3DS1 (11738374_at) / RFU C1QL1 (11718748_at) / Fold change /veh C1QL1 (11718748_at) / RFU TMPRSS4 (11747572_a_at) / Fold change /veh TMPRSS4 (11747572_a_at) / RFU HAMP (11756126_x_at) / Fold change /veh HAMP (11756126_x_at) / RFU RNFT2 (11725882_a_at) / Fold change /veh RNFT2 (11725882_a_at) / RFU NR4A2 (11747474_a_at) / Fold change /veh NR4A2 (11747474_a_at) / RFU ABCC12 (11746883_a_at) / Fold change /veh ABCC12 (11746883_a_at) / RFU TMEM136 (11760407_x_at) / Fold change /veh TMEM136 (11760407_x_at) / RFU CLDN22 /// WWC2 (11732394_at) / Fold change /veh CLDN22 /// WWC2 (11732394_at) / RFU HLA-DPB1 (11760878_x_at) / Fold change /veh HLA-DPB1 (11760878_x_at) / RFU SPINT1 (11716480_a_at) / Fold change /veh SPINT1 (11716480_a_at) / RFU GAP43 (11754022_s_at) / Fold change /veh GAP43 (11754022_s_at) / RFU A4GNT (11735810_at) / Fold change /veh A4GNT (11735810_at) / RFU PRB3 (11715151_x_at) / Fold change /veh PRB3 (11715151_x_at) / RFU TUBB4B (11761932_at) / Fold change /veh TUBB4B (11761932_at) / RFU CAPN14 (11732068_a_at) / Fold change /veh CAPN14 (11732068_a_at) / RFU TMCC2 (11721928_a_at) / Fold change /veh TMCC2 (11721928_a_at) / RFU IRGQ (11745062_a_at) / Fold change /veh IRGQ (11745062_a_at) / RFU FAM174B (11720279_a_at) / Fold change /veh FAM174B (11720279_a_at) / RFU TMPRSS4 (11748680_a_at) / Fold change /veh TMPRSS4 (11748680_a_at) / RFU FAM212B (11763350_a_at) / Fold change /veh FAM212B (11763350_a_at) / RFU PLEKHG5 (11743358_a_at) / Fold change /veh PLEKHG5 (11743358_a_at) / RFU ZSCAN30 (11745921_a_at) / Fold change /veh ZSCAN30 (11745921_a_at) / RFU CMKLR1 (11741424_a_at) / Fold change /veh CMKLR1 (11741424_a_at) / RFU LOC101060620 /// MAPK8IP1 (11723275_at) / Fold change /veh LOC101060620 /// MAPK8IP1 (11723275_at) / RFU SPTSSB (11747773_x_at) / Fold change /veh SPTSSB (11747773_x_at) / RFU PRSS12 (11739890_at) / Fold change /veh PRSS12 (11739890_at) / RFU BIN1 (11741810_x_at) / Fold change /veh BIN1 (11741810_x_at) / RFU WNT11 (11732464_a_at) / Fold change /veh WNT11 (11732464_a_at) / RFU C10orf10 (11716521_a_at) / Fold change /veh C10orf10 (11716521_a_at) / RFU C5orf56 (11738089_at) / Fold change /veh C5orf56 (11738089_at) / RFU CYB561 (11721691_x_at) / Fold change /veh CYB561 (11721691_x_at) / RFU ANKRD19P (11752326_a_at) / Fold change /veh ANKRD19P (11752326_a_at) / RFU OR2T12 /// OR2T33 /// OR2T8 (11738714_s_at) / Fold change /veh OR2T12 /// OR2T33 /// OR2T8 (11738714_s_at) / RFU VCAN (11748164_a_at) / Fold change /veh VCAN (11748164_a_at) / RFU JSRP1 (11732532_at) / Fold change /veh JSRP1 (11732532_at) / RFU KRTAP10-11 (11738290_x_at) / Fold change /veh KRTAP10-11 (11738290_x_at) / RFU MYO3A (11730013_a_at) / Fold change /veh MYO3A (11730013_a_at) / RFU EBF3 (11725865_a_at) / Fold change /veh EBF3 (11725865_a_at) / RFU CAMK2N1 (11719241_x_at) / Fold change /veh CAMK2N1 (11719241_x_at) / RFU C5orf56 (11738088_a_at) / Fold change /veh C5orf56 (11738088_a_at) / RFU OLFML3 (11715873_a_at) / Fold change /veh OLFML3 (11715873_a_at) / RFU LOC100653217 /// NTM (11731650_a_at) / Fold change /veh LOC100653217 /// NTM (11731650_a_at) / RFU MAPK11 (11762145_a_at) / Fold change /veh MAPK11 (11762145_a_at) / RFU FIZ1 (11724087_x_at) / Fold change /veh FIZ1 (11724087_x_at) / RFU OASL (11726364_x_at) / Fold change /veh OASL (11726364_x_at) / RFU SOX15 (11748057_x_at) / Fold change /veh SOX15 (11748057_x_at) / RFU CD79A (11719716_a_at) / Fold change /veh CD79A (11719716_a_at) / RFU HIST1H1D (11736915_at) / Fold change /veh HIST1H1D (11736915_at) / RFU CASKIN2 (11723855_a_at) / Fold change /veh CASKIN2 (11723855_a_at) / RFU LOC730098 (11760151_x_at) / Fold change /veh LOC730098 (11760151_x_at) / RFU OR4N2 (11742367_at) / Fold change /veh OR4N2 (11742367_at) / RFU PRRT2 (11749266_a_at) / Fold change /veh PRRT2 (11749266_a_at) / RFU SNX32 (11753110_a_at) / Fold change /veh SNX32 (11753110_a_at) / RFU CDHR5 (11726645_a_at) / Fold change /veh CDHR5 (11726645_a_at) / RFU RCAN1 (11760418_a_at) / Fold change /veh RCAN1 (11760418_a_at) / RFU FAM167A (11723789_a_at) / Fold change /veh FAM167A (11723789_a_at) / RFU FAM26E (11764081_at) / Fold change /veh FAM26E (11764081_at) / RFU ISYNA1 (11749810_s_at) / Fold change /veh ISYNA1 (11749810_s_at) / RFU ACY1 (11761880_at) / Fold change /veh ACY1 (11761880_at) / RFU 11764098_at / Fold change /veh 11764098_at / RFU SAMD14 (11745864_x_at) / Fold change /veh SAMD14 (11745864_x_at) / RFU NPB (11741838_a_at) / Fold change /veh NPB (11741838_a_at) / RFU TMPRSS6 (11731388_a_at) / Fold change /veh TMPRSS6 (11731388_a_at) / RFU KRTAP10-2 (11738614_at) / Fold change /veh KRTAP10-2 (11738614_at) / RFU ARHGAP8 /// PRR5-ARHGAP8 (11727945_x_at) / Fold change /veh ARHGAP8 /// PRR5-ARHGAP8 (11727945_x_at) / RFU KRTAP5-7 /// NADSYN1 (11734609_at) / Fold change /veh KRTAP5-7 /// NADSYN1 (11734609_at) / RFU RASL12 (11751679_a_at) / Fold change /veh RASL12 (11751679_a_at) / RFU CDKN2B (11736163_a_at) / Fold change /veh CDKN2B (11736163_a_at) / RFU PRF1 (11729649_at) / Fold change /veh PRF1 (11729649_at) / RFU, ZNF638 /// ZNF638-IT1 / Fold change vs veh, ZNF638 /// ZNF638-IT1 / RFU, PANK3 / Fold change vs veh, PANK3 / RFU, SH3YL1 / Fold change vs veh, SH3YL1 / RFU, ZEB2 / Fold change vs veh, ZEB2 / RFU, NRIP1 / Fold change vs veh, NRIP1 / RFU, PTTG1IP / Fold change vs veh, PTTG1IP / RFU, CAPN2 / Fold change vs veh, CAPN2 / RFU, MED14 / Fold change vs veh, MED14 / RFU, SNORA58 / Fold change vs veh, SNORA58 / RFU, C1orf63 / Fold change vs veh, C1orf63 / RFU, LRRFIP1 / Fold change vs veh, LRRFIP1 / RFU, NDUFAF7 / Fold change vs veh, NDUFAF7 / RFU, SLC12A2 / Fold change vs veh, SLC12A2 / RFU, IBTK / Fold change vs veh, IBTK / RFU, ESF1 / Fold change vs veh, ESF1 / Fold change vs veh, TMEM50B / RFU, TAOK1 / Fold change vs veh, TAOK1 / RFU, ACBD3 / Fold change vs veh, ACBD3 / RFU, TMA16 / Fold change vs veh, TMA16 / RFU, RWDD3 / Fold change vs veh, RWDD3 / RFU, BCAT1 / Fold change vs veh, BCAT1 / RFU, EDEM3 / Fold change vs veh, EDEM3 / RFU, TMEM33 / Fold change vs veh, TMEM33 / RFU, WDR75 / Fold change vs veh, WDR75 / RFU, AHCTF1 / Fold change vs veh, AHCTF1 / RFU, TFRC / Fold change vs veh, TFRC / RFU, ZDHHC17 / Fold change vs veh, ZDHHC17 / RFU, NOM1 / Fold change vs veh, NOM1 / RFU, ARL8B / Fold change vs veh, ARL8B / RFU, ZBTB11 / Fold change vs veh, ZBTB11 / RFU, TAMM41 / Fold change vs veh, TAMM41 / RFU, KIAA1704 /// LOC100996395 / Fold change vs veh, KIAA1704 /// LOC100996395 / RFU, ING1 / Fold change vs veh, ING1 / RFU, TRMT61B / Fold change vs veh, TRMT61B / RFU, FUBP3 / Fold change vs veh, FUBP3 / RFU, TP53 / Fold change vs veh, TP53 / RFU, TNKS2 / Fold change vs veh, TNKS2 / RFU, ZFP14 / Fold change vs veh, ZFP14 / RFU, ACTR2 / Fold change vs veh, ACTR2 / RFU, PPP3R1 / Fold change vs veh, PPP3R1 / RFU, PIK3R1 / Fold change vs veh, PIK3R1 / RFU, HNRNPA1 / Fold change vs veh, HNRNPA1 / RFU, RNF170 / Fold change vs veh, RNF170 / RFU, ZNF28 / Fold change vs veh, ZNF28 / RFU, RNGTT / Fold change vs veh, RNGTT / RFU, OGT / Fold change vs veh, OGT / RFU, BRD1 / Fold change vs veh, BRD1 / RFU, MARS / Fold change vs veh, MARS / RFU, ZNF655 / Fold change vs veh, ZNF655 / RFU, FAHD1 / Fold change vs veh, FAHD1 / RFU, BDP1 / Fold change vs veh, BDP1 / RFU, LRRCC1 / Fold change vs veh, LRRCC1 / RFU, ARID1A / Fold change vs veh, ARID1A / RFU, ZNF146 / Fold change vs veh, ZNF146 / RFU, ZNF330 / Fold change vs veh, ZNF330 / RFU, GPN3 / Fold change vs veh, GPN3 / RFU, C9orf123 / Fold change vs veh, C9orf123 / RFU, N4BP2L2 / Fold change vs veh, N4BP2L2 / RFU, ARFIP1 / Fold change vs veh, ARFIP1 / RFU, FAM179B / Fold change vs veh, FAM179B / RFU, BCL10 / Fold change vs veh, BCL10 / RFU, UHRF1BP1L / Fold change vs veh, UHRF1BP1L / RFU, BET1 / Fold change vs veh, BET1 / RFU, CNOT2 / Fold change vs veh, CNOT2 / RFU, ZNF268 / Fold change vs veh, ZNF268 / Fold change vs veh, ZNF507 / RFU, DGCR2 / Fold change vs veh, DGCR2 / RFU, WDSUB1 / Fold change vs veh, WDSUB1 / Fold change vs veh, HSP90B1 /// MIR3652 / RFU, ADSS / Fold change vs veh, ADSS / RFU, GK / Fold change vs veh, GK / RFU, ZNF148 / Fold change vs veh, ZNF148 / RFU, TAF9 / Fold change vs veh, TAF9 / RFU, SLC1A5 / Fold change vs veh, SLC1A5 / RFU, SLMO2 / Fold change vs veh, SLMO2 / RFU, ABCC4 / Fold change vs veh, ABCC4 / RFU, LOC101060439 /// RAP1B / Fold change vs veh, LOC101060439 /// RAP1B / RFU, RFX7 / Fold change vs veh, RFX7 / RFU, GTPBP10 / Fold change vs veh, GTPBP10 / RFU, CNEP1R1 / Fold change vs veh, CNEP1R1 / RFU, BIVM-ERCC5 /// ERCC5 / Fold change vs veh, BIVM-ERCC5 /// ERCC5 / RFU, ILF3 / Fold change vs veh, ILF3 / RFU 11762660_at / Fold change /veh 11762660_at / RFU VCAN (11757783_s_at) / Fold change /veh VCAN (11757783_s_at) / RFU DDX43 (11728927_at) / Fold change /veh DDX43 (11728927_at) / RFU KRT8 (11758188_x_at) / Fold change /veh KRT8 (11758188_x_at) / RFU NKD1 (11759106_at) / Fold change /veh NKD1 (11759106_at) / RFU SRD5A1 (11742802_a_at) / Fold change /veh SRD5A1 (11742802_a_at) / RFU TPSAB1 /// TPSB2 (11721975_s_at) / Fold change /veh TPSAB1 /// TPSB2 (11721975_s_at) / RFU GSTM3 (11746129_a_at) / Fold change /veh GSTM3 (11746129_a_at) / RFU IL23R (11737362_x_at) / Fold change /veh IL23R (11737362_x_at) / RFU TMEM51 (11727254_a_at) / Fold change /veh TMEM51 (11727254_a_at) / RFU PIWIL2 (11732686_x_at) / Fold change /veh PIWIL2 (11732686_x_at) / RFU ORM1 (11744905_x_at) / Fold change /veh ORM1 (11744905_x_at) / RFU CCDC152 (11743942_at) / Fold change /veh CCDC152 (11743942_at) / RFU ECM1 (11717891_a_at) / Fold change /veh ECM1 (11717891_a_at) / RFU IL23R (11748794_a_at) / Fold change /veh IL23R (11748794_a_at) / RFU TNFAIP8L3 (11732012_x_at) / Fold change /veh TNFAIP8L3 (11732012_x_at) / RFU MBOAT4 (11741988_at) / Fold change /veh MBOAT4 (11741988_at) / RFU 11764193_at / Fold change /veh 11764193_at / RFU TMEM53 (11763286_at) / Fold change /veh TMEM53 (11763286_at) / RFU MAGEB2 (11727129_at) / Fold change /veh MAGEB2 (11727129_at) / RFU TMEM200A (11744735_a_at) / Fold change /veh TMEM200A (11744735_a_at) / RFU CCDC152 (11751479_a_at) / Fold change /veh CCDC152 (11751479_a_at) / RFU FAM211A (11726209_a_at) / Fold change /veh FAM211A (11726209_a_at) / RFU RGS16 (11746705_a_at) / Fold change /veh RGS16 (11746705_a_at) / RFU VCAN (11755009_s_at) / Fold change /veh VCAN (11755009_s_at) / RFU RHOB (11743442_s_at) / Fold change /veh RHOB (11743442_s_at) / RFU RGS16 (11720943_a_at) / Fold change /veh RGS16 (11720943_a_at) / RFU RGS16 (11720944_at) / Fold change /veh RGS16 (11720944_at) / RFU, VPS4B / Fold change vs veh, VPS4B / RFU, CREB1 / Fold change vs veh, CREB1 / RFU, DNAJC13 / Fold change vs veh, DNAJC13 / RFU, GNAQ / Fold change vs veh, GNAQ / RFU, CDK5R1 / Fold change vs veh, CDK5R1 / RFU, ZRANB3 / Fold change vs veh, ZRANB3 / RFU, CUL4A / Fold change vs veh, CUL4A / RFU, CCNY / Fold change vs veh, CCNY / RFU, UFL1 / Fold change vs veh, UFL1 / RFU, COG3 / Fold change vs veh, COG3 / RFU, DIAPH2 / Fold change vs veh, DIAPH2 / RFU, SKA2 / Fold change vs veh, SKA2 / RFU, AFF3 / Fold change vs veh, AFF3 / RFU, LMF1 / Fold change vs veh, LMF1 / RFU, IPO11 / Fold change vs veh, IPO11 / RFU, DFFB / Fold change vs veh, DFFB / RFU, FOXP1 / Fold change vs veh, FOXP1 / RFU, CARD8 / Fold change vs veh, CARD8 / RFU, STRN3 / Fold change vs veh, STRN3 / RFU, ADK / Fold change vs veh, ADK / RFU, RASSF2 / Fold change vs veh, RASSF2 / RFU, WIPF1 / Fold change vs veh, WIPF1 / RFU, LARP1B / Fold change vs veh, LARP1B / RFU, RASA1 / Fold change vs veh, RASA1 / RFU, RB1 / Fold change vs veh, RB1 / RFU, PPFIA1 / Fold change vs veh, PPFIA1 / RFU, MAT2A / Fold change vs veh, MAT2A / RFU, CCT5 / Fold change vs veh, CCT5 / RFU, WDR92 / Fold change vs veh, WDR92 / RFU, CUX1 / Fold change vs veh, CUX1 / RFU, TTC7A / Fold change vs veh, TTC7A / RFU, TMEM135 / Fold change vs veh, TMEM135 / RFU, DEPTOR / Fold change vs veh, DEPTOR / RFU, CPM / Fold change vs veh, CPM / RFU, DNAJB6 / Fold change vs veh, DNAJB6 / RFU, CACNA2D3 / Fold change vs veh, CACNA2D3 / RFU, DTX4 / Fold change vs veh, DTX4 / RFU, TFCP2 / Fold change vs veh, TFCP2 / RFU, GMCL1 /// GMCL1P1 / Fold change vs veh, GMCL1 /// GMCL1P1 / RFU, AEBP2 / Fold change vs veh, AEBP2 / RFU, SNHG1 /// SNORD22 /// SNORD25 /// SNORD26 /// SNORD27 /// SNORD28 /// SNORD29 /// SNORD31 / Fold change vs veh, SNHG1 /// SNORD22 /// SNORD25 /// SNORD26 /// SNORD27 /// SNORD28 /// SNORD29 /// SNORD31 / Fold change (Aza/veh), C12orf56 (ProbeSet 11735607_a_at) / Fold change (ACY-1035/veh), C12orf56 (ProbeSet 11735607_a_at) / Fold change (Aza/veh), FGFR1OP (ProbeSet 11751329_s_at) / Fold change (ACY-1035/veh), FGFR1OP (ProbeSet 11751329_s_at) / Fold change (Aza/veh), VPS36 (ProbeSet 11739960_a_at) / Fold change (ACY-1035/veh), VPS36 (ProbeSet 11739960_a_at) / RFU SYPL1 (11715823_x_at) / Fold change /veh SYPL1 (11715823_x_at) / RFU IGFBP7 (11715501_s_at) / Fold change /veh IGFBP7 (11715501_s_at) / RFU REEP3 (11722064_at) / Fold change /veh REEP3 (11722064_at) / RFU IGLL1 (11728026_x_at) / Fold change /veh IGLL1 (11728026_x_at): dose or concentration left out as unconfirmed
Conditions: ProbeSet 11719632_a_at; LIST B

## Nc1ncn([C@@H]2O[C@H](CO)[C@@H](O)[C@H]2O)c(=O)n1 [azacitidine]
  RFU, ABCC4: 39.11 RFU

Source: publication PMC5218480 (PLoS ONE, 2017)
